In this assay the target is T1, BACE-1 enzyme (Homo sapiens, UniProt P56817).
T1 construct: purchased R & D Systems 931AS
The experiment in a line: BACE Fluorescence Resonance Energy Transfer (FRET) Assay. It counts as biochemical. Particulars: pH 4-4.5, 30 min pre-incubation, about 1.5 hours reaction. Here is the method:
BACE Fluorescence Resonance Energy Transfer (FRET) Assay
In the following assay, the proteolytic activity of BACE is measured by observing cleavage of a fluorescent group from a peptide substrate containing a rhodamine fluorescent donor and a quenching acceptor.
The inhibitory activity of compounds of Formula (I) may be compared to a statine derived control inhibitor STA200 (MP Biomedical Cat. #STA-200). The cleavage reaction occurs when a BACE-1 substrate (Invitrogen, Cat. #P2986) was added to a reaction mixture containing BACE-1 enzyme (R & D Systems, Cat. #931AS) and allowed to proceed for about 1.5 hours. Fluorescence, used as a marker of BACE activity, is monitored using 540 nm excitation and 585 nm emission wavelengths (Envision, Perkin Elmer).
A typical assay reaction contains BACE-1 enzyme—in assay buffer (50 mM sodium acetate, pH 4-4.5, 0.01% CHAPS (3-[(3-Cholamidopropyl)dimethylammonio]-1-propanesulfonate), 0.0125% TritonX-100, 0.006% EDTA) which is pre-incubated for 30 minutes with test compound in 7.5% DMSO. The reaction is initiated with the addition of BACE-1 substrate in assay buffer and allowed to proceed for about 1.5 hours at room temperature. Assays are conducted in black 384-well microtiter plates and scanned at room temperature using 540 nm excitation and 585 nm emission wavelengths.
In some instances, the percent inhibition at a given concentration is reported instead of the IC50.

SMILES strings stand for the structures.

Results on 30 compounds are retold here after patent publication US20120101093A1, “SUBSTITUTED IMIDAZO[1,2-A]PYRIDINE DERIVATIVES, PHARMACEUTICAL COMPOSITIONS, AND METHODS OF USE AS BETA-SECRETASE INHIBITORS” (HIGH POINT PHARMACEUTICALS, LLC, priority 2009, published 2012).

T1 sequence (P56817 46-457 limits assumed): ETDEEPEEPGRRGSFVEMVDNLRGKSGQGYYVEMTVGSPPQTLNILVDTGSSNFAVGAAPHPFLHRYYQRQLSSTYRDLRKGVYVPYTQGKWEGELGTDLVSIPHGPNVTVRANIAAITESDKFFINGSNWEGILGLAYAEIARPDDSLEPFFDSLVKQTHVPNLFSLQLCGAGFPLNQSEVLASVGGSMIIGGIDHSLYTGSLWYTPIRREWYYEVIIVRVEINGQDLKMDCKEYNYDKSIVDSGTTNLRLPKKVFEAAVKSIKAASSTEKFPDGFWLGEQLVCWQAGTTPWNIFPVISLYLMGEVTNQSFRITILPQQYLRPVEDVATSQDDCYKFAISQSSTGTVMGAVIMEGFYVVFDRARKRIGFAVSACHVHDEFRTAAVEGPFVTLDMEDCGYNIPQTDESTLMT

`COc1cccc2nc(C(=O)Nc3nc4cc(-c5cccc(C(F)(F)F)c5)ccc4[nH]3)cn12` [Example 4, 5-Methoxy-imidazo[1,2-a]pyridine-2-carboxylic acid[5-(3-trifluoromethyl-phenyl)-1H-benzoimidazol-2-yl]-amide] gave an IC50 of 0.51 µM.
In turn, `Cc1c(N2CC[C@@H](O)C2)ccc2nc(C(=O)Nc3nc4cc(-c5cc(F)cc(Cl)c5)ccc4[nH]3)cn12` [Example 5, 6-((R)-3-Hydroxy-pyrrolidin-1-yl)-5-methyl-imidazo[1,2-a]pyridine-2-carboxylic acid [5-(3-chloro-5-fluoro-phenyl)-1H-benzoimidazol-2-yl]-amide] displayed an IC50 of 0.49 µM.
For `Cc1c(C#CC(C)(C)O)ccc2nc(C(=O)Nc3nc4cc(-c5cccc(C(F)(F)F)c5)ccc4[nH]3)cn12` [Example 6, 6-(3-Hydroxy-3-methyl-but-1-ynyl)-5-methyl-imidazo[1,2-a]pyridine-2-carboxylic acid [5-(3-trifluoromethyl-phenyl)-1H-benzoimidazol-2-yl]-amide], half-maximal inhibition (IC50) required 0.25 µM.
To `Cc1c(OCCO)ccc2nc(C(=O)Nc3nc4cc(-c5cccc(C(F)(F)F)c5)ccc4[nH]3)cn12` [Example 7, 6-(2-Hydroxy-ethoxy)-5-methyl-imidazo[1,2-a]pyridine-2-carboxylic acid [5-(3-trifluoromethyl-phenyl)-1H-benzoimidazol-2-yl]-amide] belongs 0.1 µM; to `O=C(Nc1nc2cc(-c3cc(F)cc(Cl)c3)ccc2[nH]1)c1cn2c(N3CC[C@@H](O)C3)cccc2n1` [Example 8, 5-((R)-3-Hydroxy-pyrrolidin-1-yl)-imidazo[1,2-a]pyridine-2-carboxylic acid [5-(3-chloro-5-fluoro-phenyl)-1H-benzoimidazol-2-yl]-amide], 0.2 µM; to `O=C(Nc1nc2cc(-c3cccc(Cl)c3)ccc2[nH]1)c1cn2cc(OCCO)ccc2n1` [Example 9, 6-(2-Hydroxy-ethoxy)-imidazo[1,2-a]pyridine-2-carboxylic acid [5-(3-chloro-phenyl)-1H-benzoimidazol-2-yl]-amide], 0.3 µM.
In the case of `O=C(Nc1nc2cc(OCc3ccccc3)ccc2[nH]1)c1cn2cc(Cl)ccc2n1` [Example 13, 6-Chloro-imidazo[1,2-a]pyridine-2-carboxylic acid (5-benzyloxy-1H-benzoimidazol-2-yl)-amide], the IC50 worked out at 0.08 µM.
In the case of `Cc1cccn2cc(C(=O)Nc3nc4cc(OCc5ccccc5)ccc4[nH]3)nc12` [Example 14, 8-Methyl-imidazo[1,2-a]pyridine-2-carboxylic acid (5-benzyloxy-1H-benzoimidazol-2-yl)-amide] it was 0.12 µM; in that of `O=C(Nc1nc2cc(OCc3ccc(Cl)cc3Cl)ccc2[nH]1)c1cn2cc(Cl)ccc2n1` [Example 15, 6-Chloro-imidazo[1,2-a]pyridine-2-carboxylic acid [5-(2,4-dichloro-benzyloxy)-1H-benzoimidazol-2-yl]-amide], 0.23 µM; in that of `O=C(Nc1nc2cc(OCc3cc(F)cc(F)c3)ccc2[nH]1)c1cn2cc(Cl)ccc2n1` [Example 16, 6-Chloro-imidazo[1,2-a]pyridine-2-carboxylic acid [5-(3,5-difluoro-benzyloxy)-1H-benzoimidazol-2-yl]-amide], 0.17 µM.
The compound `O=C(Nc1nc2cc(OCc3ccc(C(F)(F)F)cc3)ccc2[nH]1)c1cn2ccccc2n1` [Example 17, Imidazo[1,2-a]pyridine-2-carboxylic acid [5-(4-trifluoromethyl-benzyloxy)-1H-benzoimidazol-2-yl]-amide] yielded an IC50 of 0.12 µM.
To `O=C(Nc1nc2cc(OCc3cc(F)cc(Cl)c3)ccc2[nH]1)c1cn2cc(Cl)ccc2n1` [Example 19, 6-Chloro-imidazo[1,2-a]pyridine-2-carboxylic acid [5-(3-chloro-5-fluoro-benzyloxy)-1H-benzoimidazol-2-yl]-amide] belongs 0.23 µM; to `O=C(Nc1nc2cc(OCc3ccc(Cl)c(Cl)c3)ccc2[nH]1)c1cn2cc(Cl)ccc2n1` [Example 20, 6-Chloro-imidazo[1,2-a]pyridine-2-carboxylic acid [5-(3,4-dichloro-benzyloxy)-1H-benzoimidazol-2-yl]-amide], 0.25 µM; to `O=C(Nc1nc2cc(OCc3ccc(C(F)(F)F)cc3)ccc2[nH]1)c1cn2cc(Cl)ccc2n1` [Example 21, 6-Chloro-imidazo[1,2-a]pyridine-2-carboxylic acid [5-(4-trifluoromethyl-benzyloxy)-1H-benzoimidazol-2-yl]-amide], 0.14 µM.
Regarding `Cc1cccn2cc(C(=O)Nc3nc4cc(OCc5ccc(C(F)(F)F)cc5)ccc4[nH]3)nc12` [Example 22, 8-Methyl-imidazo[1,2-a]pyridine-2-carboxylic acid [5-(4-trifluoromethyl-benzyloxy)-1H-benzoimidazol-2-yl]-amide], it took 0.19 µM to reach half-maximal inhibition (IC50).
To `O=C(Nc1nc2cc(OCc3ccc(F)cc3F)ccc2[nH]1)c1cn2cc(Cl)ccc2n1` [Example 24, 6-Chloro-imidazo[1,2-a]pyridine-2-carboxylic acid [5-(2,4-difluoro-benzyloxy)-1H-benzoimidazol-2-yl]-amide] belongs 0.13 µM; to `COc1cccc(-c2ccc3[nH]c(NC(=O)c4cn5c(C)cccc5n4)nc3c2)c1` [Example 25, 5-Methyl-imidazo[1,2-a]pyridine-2-carboxylic acid [5-(3-methoxy-phenyl)-1H-benzoimidazol-2-yl]-amide], 0.1 µM.
In the case of `Cc1cccn2cc(C(=O)Nc3nc4cc(-c5ccccc5)ccc4[nH]3)nc12` [Example 29, 8-Methyl-imidazo[1,2-a]pyridine-2-carboxylic acid (5-phenyl-1H-benzoimidazol-2-yl)-amide] it was 1.29 µM.
Consider `Cc1cccc2nc(C(=O)Nc3nc4cc(OC5CCCC5)ccc4[nH]3)cn12` [Example 30, 5-Methyl-imidazo[1,2-a]pyridine-2-carboxylic acid (5-cyclopentyloxy-1H-benzoimidazol-2-yl)-amide], for which half-maximal inhibition (IC50) required 4.15 µM.
In the case of `Cc1cccn2cc(C(=O)Nc3nc4cc(OC5CCCC5)ccc4[nH]3)nc12` [Example 31, 8-Methyl-imidazo[1,2-a]pyridine-2-carboxylic acid (5-cyclopentyloxy-1H-benzoimidazol-2-yl)-amide] it was 2.69 µM; in that of `Cc1cccn2cc(C(=O)Nc3nc4cc(OCc5ccc(OC(F)(F)F)cc5)ccc4[nH]3)nc12` [Example 33, 8-Methyl-imidazo[1,2-a]pyridine-2-carboxylic acid [5-(4-trifluoromethoxy-benzyloxy)-1H-benzoimidazol-2-yl]-amide], 1.36 µM; in that of `O=C(Nc1nc2cc(-c3cccc(C(F)(F)F)c3)ccc2[nH]1)c1cn2cc(Cl)ccc2n1` [Example 34, 6-Chloro-imidazo[1,2-a]pyridine-2-carboxylic acid [5-(3-trifluoromethyl-phenyl)-1H-benzoimidazol-2-yl]-amide], 2.53 µM.
To `Cc1cccc2nc(C(=O)Nc3nc4cc(N5CCC(c6ccccc6)CC5)ccc4[nH]3)cn12` [Example 36, 5-Methyl-imidazo[1,2-a]pyridine-2-carboxylic acid [5-(4-phenyl-piperidin-1-yl)-1H-benzoimidazol-2-yl]-amide] belongs 1.46 µM; to `Cc1cccn2cc(C(=O)Nc3nc4cc(N5CCC(c6ccccc6)CC5)ccc4[nH]3)nc12` [Example 37, 8-Methyl-imidazo[1,2-a]pyridine-2-carboxylic acid [5-(4-phenyl-piperidin-1-yl)-1H-benzoimidazol-2-yl]-amide], 1.8 µM; to `Cc1cccc2nc(C(=O)Nc3nc4cc(-c5ccncc5)ccc4[nH]3)cn12` [Example 38, 5-Methyl-imidazo[1,2-a]pyridine-2-carboxylic acid (5-pyridin-4-yl-1H-benzoimidazol-2-yl)-amide], 3.14 µM.
In the case of `COCCCOc1cccc(-c2ccc3[nH]c(NC(=O)c4cn5c(C)cccc5n4)nc3c2)c1` [Example 39, 5-Methyl-imidazo[1,2-a]pyridine-2-carboxylic acid {5-[3-(3-methoxy-propoxy)-phenyl]-1H-benzoimidazol-2-yl}-amide] it was 1.32 µM.
Regarding `Cc1cccc2nc(C(=O)Nc3nc4cc(-c5cccc(OC6CCCCC6)c5)ccc4[nH]3)cn12` [Example 40, 5-Methyl-imidazo[1,2-a]pyridine-2-carboxylic acid [5-(3-cyclohexyloxy-phenyl)-1H-benzoimidazol-2-yl]-amide], the IC50 was found to be 2.55 µM.
In the case of `Cc1cccc2nc(C(=O)Nc3nc4cc(-c5cnn(C)c5)ccc4[nH]3)cn12` [Example 41, 5-Methyl-imidazo[1,2-a]pyridine-2-carboxylic acid [5-(1-methyl-1H-pyrazol-4-yl)-1H-benzoimidazol-2-yl]-amide] it was 3.06 µM; in that of `Cc1cccc2nc(C(=O)Nc3nc4cc(-c5cccc(N6CCOCC6)c5)ccc4[nH]3)cn12` [Example 44, 5-Methyl-imidazo[1,2-a]pyridine-2-carboxylic acid [5-(3-morpholin-4-yl-phenyl)-1H-benzoimidazol-2-yl]-amide], 4.37 µM.
To `Cc1cccc2nc(C(=O)Nc3nc4cc(-c5cccc(F)c5)ccc4[nH]3)cn12` [Example 45, 5-Methyl-imidazo[1,2-a]pyridine-2-carboxylic acid [5-(3-fluoro-phenyl)-1H-benzoimidazol-2-yl]-amide] belongs 1.49 µM.

As usually defined, the IC50 is the concentration at which inhibition is half-maximal. Low values mean inhibition by little substance, high ones a need for much substance.
